Patent publication EP0412814A2, “Pyridazinones having cardiotonic and beta blocking activity” (GLAXO WELLCOME INC., priority 1989, dated 1991)
Read-outs that look alike come from different tables or passages of the source.

Key:
guinea-pigs left atria = experiment: Guinea pig left atria test: force of atrial contraction; conditions: Cavia porcellus
Source text: Male Hartley guinea-pigs (300-400 grams) were sacrificed by cervical dislocation or carbon dioxide asphyxiation. The hearts were immediately removed and placed in oxygenated Krebs-Henseleit buffer (composition (millimolar): Na⁺ 143, K⁺ 5.9, Ca⁺⁺ 1.25, Mg⁺⁺ 1.2, Cl⁻ 128, HCO₃⁻ 25, SO₄⁻⁻ 1.2, H₂PO₄⁻ 1.0, and D-glucose 10). Left atria were dissected away from the remainder of the heart and mounted on holders against platinum punctate electrodes. The mounted atria were placed in tissue baths maintained at 31°C and oxygenated with 95% 0₂-5% CO₂ under 1.0 gram resting tension. The atria were stimulated through the punctate electrode and an external platimum electrode at the threshold voltage plus thirty percent, one Hertz frequency and five to ten milliseconds duration. Contractions were detected with a force displacement transducer and recorded on a physiograph. […]
Direct effects of the test compounds on the force of atrial contraction were observed and recorded after addition of the compounds to the tissue bath. […] Responses to the test compounds and forskolin were expressed as a percentage of the maximal response to forskolin. EC₅₀ values for the test compounds were calculated as the concentration of the compound neceesary to produce an inotropic response half that of the maximal response produced by the test compound. […]

[1] = test system: barbiturate-anesthetized dogs; experiment: Anesthetized dog: inotropic effect (dP/dt) and inhibition of the isoproterenol response; format: in vivo; conditions: for ED50: Canis lupus familiaris, iv, i.v. infusion, cumulative dose
Experimental: Inotropic effects were evaluated in barbiturate-anesthetized dogs by differentiating left intraventricular pressure. This procedure was carried out essentially as described by M.K. Grizzel et al in the FASEB Journal, Vol. 3, page 1039, abstract 4728 (1989). Purpose breed mongrel dogs (14-20 kg) of either sex were anesthetized with a mixture of sodium pentobarbital (15 mg/kg) and sodium barbital (300 mg/kg) i.v., intubated with a cuffed endotracheal tube and ventilated with a respirator (Harvard Apparatus, model 613, South Natick, MA) with room air (22 rpm,10-12 ml/kg/stroke). A 5F pressure transducer (Millar Instruments, Mikkro-tip Houston, TX) was inserted through the right carotid artery into the left ventricle to monitor intraventricular pressure. The left ventricular pressure signal was differentiated (using a 100 Hz low pass differential amplifier, Gould Inc., Cleveland, OH) to obtain its maximal rate of rise (+dP/dt), and used to trigger a biotach amplifier to record heart rate. Cardiac output was determined via thermodilution with a Spectramed computer (Starcom, Oxnard, CA) and a 5F Swan Ganz catheter which was inserted into the right jugular vein and positioned in the pulmonary artery. The femoral artery was cannulated for monitoring arterial blood pressure with a pressure transducer (Micron model MP15D, Simi Valley, CA). A lead II electrocardiogram was measured using subcutaneous electrodes. […] Rectal temperature was monitored and maintained at 37-38°C with a heating pad (Baxter Health Care model K20, McGaw Park, IL). All variables were recorded using a Gould 3800S physiograph.
Isoproterenol ([…]) was injected i.v. into the cephalic vein at 10 min intervals except for when the test drug infusion was begun. […] Inhibition of the isoproterenol responses on contractility (dP/dt), heart rate and diastolic blood pressure were determined at each dose of test compound. The inotropic effect of each compound was determined by comparing the level of dP/dt at the end of each 10 min period to that of the level of dP/dt just prior to the infusion of test compound. […]

Beta-1 adrenoceptor = molecular target: T1, Beta-1 adrenoceptor (Rattus norvegicus, UniProt P18090); experiment: Beta adrenoceptor binding assay: [I-125]-Pindolol displacement from rat brain cortical membranes; conditions: IC₅₀ for displacement of [I-125]-Pindolol, 22°C, two hours, read-out: pIC₅₀ (converted)
T1 construct: rat brain cortices were used as the source of membrane vesicles; from tissue; host or cells: rat brain cortex membranes
Experimental: Because of its receptor density rat brain cortices were used as the source of membrane vesicles to be used in the receptor binding assays. Freshly excised cortexes were homogenized in 20 volumes (w/v) 50 mM TRIS HCl Buffer (pH 7.5), with a glass/Teflon homogenizer following the procedure previously described by T.J. Rimele in J. Pharmacol. Exp. Ther. 239: 1-8, 1986. Beta-1 adrenoceptor binding activity was determined following methods described by M.H. Randall, et al, J. Med. Chem. 20: 1090-1094, 1977, and J. Homberger, et al in Mol. Pharmacol. 20: 453-469, 1981. The incubation mixture consisted of; 26 microliters of 50 mM TRIS/HCl, 10 mM MgCl₂ pH 7.6 buffer, 25 microliters of test drug or 10-6 pindolol to define nonspecific binding, 100 microliters of [I-125]-Pindolol (2200 Ci/mM) at a final concentration of 10-9, and 100 microliters of brain cortical membranes. […] The radioactivity in each filter containing the trapped membrane particles was counted with a gamma counter. […] All specific binding values obtained in the presence of test compounds were expressed as the percentage of specific binding displaced by the individual agents. The resultant values were plotted on a log plot of concentration of test compound vs. percentage of displacement and an IC₅₀ value (drug concentration which produces 50% displacement) determined. […]

rat aorta = experiment: Rat aorta protocol: relaxation of phenylephrine-contracted rat aorta rings (endothelium removed); conditions: percentage of maximal relaxation produced by nitroprusside (1 X 10⁻⁴ M), at the highest dose tested (100 micromolar), read-out: maximal response
Experimental: Such vasorelaxation appears to be related to inhibition of the phosphodiesterase (PDE) isozyme related to the cardiac sarcoplasmic reticulum. Thus, relaxation of rat aorta can be used as a screen to eliminate compounds which are not PDE inhibitors prior to testing for actual inotropic activity.
Rings of rat aorta (endothelium removed) were prepared for the measurement of isometric force in isolated tissue organ chambers essentially as previously described by T.J. Rimele et al in the Journal of Pharmacol. Exp. Ther. 245:102-111 (1988). The experimental portion of the protocol began with the addition of methylene blue (1 X 10⁻⁵ M) and propranolol (1 X 10⁻⁶ M) to each organ chamber to inhibit basal cGMP accumulation due to soluble guanylate cyclase and beta-adrenoceptors. Phenylephrine (1 X 10⁻⁷ M) was then added and the rings were allowed to obtain a stable contractile response after which time, the test compound was added in a cumulative fashion. The relaxation induced by each concentration of the test compound was expressed as a percentage of the maximal relaxation produced by nitroprusside (1 X 10⁻⁴ M). […] The IC₅₀ (concentration of test compound which produced a relaxation equivalent to 50% of the maximal relaxation induced by nitroprusside) was determined for each tissue. […]

T1 sequence (P18090 whole entry): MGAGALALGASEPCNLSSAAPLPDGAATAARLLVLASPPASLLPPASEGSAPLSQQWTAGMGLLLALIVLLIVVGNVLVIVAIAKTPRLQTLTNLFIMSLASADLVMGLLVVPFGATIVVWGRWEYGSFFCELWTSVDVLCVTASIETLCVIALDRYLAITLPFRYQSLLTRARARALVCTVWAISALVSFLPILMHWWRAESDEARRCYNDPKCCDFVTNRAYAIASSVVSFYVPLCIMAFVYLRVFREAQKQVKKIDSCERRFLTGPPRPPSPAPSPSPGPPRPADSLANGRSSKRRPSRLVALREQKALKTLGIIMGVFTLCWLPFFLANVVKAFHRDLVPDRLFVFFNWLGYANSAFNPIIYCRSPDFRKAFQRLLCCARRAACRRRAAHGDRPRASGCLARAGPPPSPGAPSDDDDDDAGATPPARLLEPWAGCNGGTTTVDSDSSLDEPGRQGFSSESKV

O=C(COc1ccc(C2=NNC(=O)CC2)cc1Cl)NCCNC[C@H](O)COc1ccccc1 [Example 19, 6-{4-[N-[2-[3-phenoxy-2-hydroxypropylamino]ethyl]carbamoylmethoxy]-3-chlorophenyl}-4,5-dihydro-3(2H)-pyridazinone]
EC50 (guinea-pigs left atria; concentration producing an inotropic response half that of the maximal response produced by the test compound, read-out: ED₅₀): 9 µM
Emax at 100 µM (guinea-pigs left atria; percentage of the maximal response to forskolin, at 100 micromolar, propranolol and phentolamine (1.0 micromolar) present): 83%
ED50 ([1]; 50% increase in dP/dt compared to a baseline established prior to drug infusion, read-out: inotropic ED₅₀): 0.114 µmol/kg
ED50 ([1]; 50% inhibition of the dP/dt response to isoproterenol, read-out: ED₅₀ for inhibition of the isoproterenol response): 0.469 µmol/kg
inotropic effects with atenolol ([1]; whether the inotropic effects are blocked by atenolol): not blocked by atenolol
IC50 (Beta-1 adrenoceptor): 0.0269 µM
Emax at 100 µM (rat aorta): 100%
